Molecular target: T1, Human M4 (Homo sapiens, UniProt P08173)
T1 construct: expressed in transfected cells; host or cells: CHO-K1 (ATCC), stably co-expressing chimeric G protein Gqi5
T1 sequence (P08173 1-479): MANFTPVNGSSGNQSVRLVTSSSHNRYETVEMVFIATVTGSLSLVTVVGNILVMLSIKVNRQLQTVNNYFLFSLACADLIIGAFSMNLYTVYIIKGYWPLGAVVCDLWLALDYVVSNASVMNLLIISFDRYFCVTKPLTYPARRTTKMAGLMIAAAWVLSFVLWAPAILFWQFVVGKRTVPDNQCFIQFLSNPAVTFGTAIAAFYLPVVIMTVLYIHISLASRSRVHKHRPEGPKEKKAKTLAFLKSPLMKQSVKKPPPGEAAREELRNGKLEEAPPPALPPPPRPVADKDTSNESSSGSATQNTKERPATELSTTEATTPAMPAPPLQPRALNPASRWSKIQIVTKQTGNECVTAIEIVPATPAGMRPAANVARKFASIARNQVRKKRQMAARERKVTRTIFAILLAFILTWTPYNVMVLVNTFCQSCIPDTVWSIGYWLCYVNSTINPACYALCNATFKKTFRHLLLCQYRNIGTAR
Assay: mAChR M4 cell-based functional assay (calcium flux, antagonist mode)
Conditions: for remaining activity at 30 µM: % ACh maximum at 30 μM, read-out: Emin; for IC50: M4/Gqi5/CHO-K1 cells, concentration-dependent decrease of the EC80 acetylcholine response
Protocol: Human or rat M4 cDNA, along with the chimeric G protein Gqi5, were transfected into Chinese hamster ovary (CHO-K1) cells purchased from the American Type Culture Collection using Lipofectamine2000. M4/Gqi5/CHO cells were grown in Ham's F-12 medium containing 10% heat-inactivated fetal bovine serum (FBS), 20 mM HEPES, 500 μg/mL G418 sulfate, and 200 μg/mL Hygromycin B.
For high throughput measurement of agonist-evoked increases in intracellular calcium, CHO-K1 cells stably expressing muscarinic receptors were plated in growth medium lacking G418 and hygromycin at 15,000 cells/20 μL/well in Greiner 384-well black-walled, tissue culture (TC)-treated, clear-bottom plates (VWR). Cells were incubated overnight at 37° C. and 5% CO2. The next day, cells were washed using an ELX 405 (BioTek) with assay buffer; the final volume was then aspirated to 20 μL, Next, 20 μL of a 2.3 μM stock of Fluo-4/acetoxymethyl ester (Invitrogen, Carlsbad, Calif.), prepared as a 2.3 μM stock in DMSO, mixed in a 1:1 ratio with 10% (w/v) Pluronic F-127 and diluted in assay buffer, was added to the wells and the cell plates were incubated for 50 min at 37° C. and 5% CO2. Dye was removed by washing with the ELX 405 and the final volume was aspirated to […]. Compound master plates were formatted in a 10 point concentration-response curve (CRC) format (1:3 dilutions) in 100% DMSO with a starting concentration of 10 or 1 mM using a BRAVO liquid handler (Agilent). Test compound CRCs were then transferred to daughter plates (240 nL) using the Echo acoustic plate reformatter (Labcyte, Sunnyvale, Calif.) and then diluted into assay buffer (40 μL) to a 2× stock using a Thermo Fisher Combi (Thermo Fisher Scientific, Waltham, Mass.).
Calcium flux was measured using the Functional Drug Screening System (FDSS) 6000 or 7000 (Hamamatsu Corporation, Tokyo, Japan) as an increase in the fluorescent static ratio. Compounds were applied to cells (20 μL, 2×) using the automated system of the FDSS at 2 seconds into the protocol and the data were collected at 1 Hz. At 143 s, 10 μL of an EC20 concentration of the muscarinic receptor agonist acetylcholine was added (5×), followed by the addition of 12 μL of an EC80 concentration of acetylcholine at the 268 s time point (5×). Agonist activity was analyzed as a concentration-dependent increase in calcium mobilization upon compound addition. Positive allosteric modulator activity was analyzed as a concentration-dependent increase in the EC20 acetylcholine response. Antagonist activity was analyzed as a concentration-dependent decrease in the EC80 acetylcholine response; for the purposes of the tables herein, an […] (inhibitory concentration 50) was calculated as a concentration-dependent decrease of the response elicited by an EC80 concentration of acetylcholine. Concentration-response curves were generated using a four-parameter logistical equation in XLFit curve fitting software (IDBS, Bridgewater, N.J.) for Excel (Microsoft, Redmond, Wash.) or Prism (GraphPad Software, Inc., San Diego, Calif.) or the Dotmatics software platform (Dotmatics, Bishop's Stortford, UK).
Compounds were synthesized as described above. Activity (IC50 and Emin) was determined in the mAChR M4 cell-based functional assay as described above and the data are shown in Table 4.

Structure (SMILES)	remaining activity at 30 µM	IC50
Fc1ccc(Cl)c(-c2ccc(OC3CC4(CCN(Cc5ccccc5)CC4)C3)nn2)c1 [Compound 22, 7-benzyl-2-[6-(2-chloro-5-fluoro-phenyl)pyridazin-3-yl]oxy-7-azaspiro[3.5]nonane]	3.34%	1.27 µM
Cc1cccnc1CN1CCC2(CC1)CC(Nc1ccc(-c3c(C)cnn3C)nn1)C2 [Compound 12, N-[6-(2,4-dimethylpyrazol-3-yl)pyridazin-3-yl]-7-[(3-methyl-2-pyridyl)methyl]-7-azaspiro[3.5]nonan-2-amine]	6.85%	1.12 µM
Cc1nn(C)cc1-c1ccc(NC2CC3(CCN(CCC(C)(C)C)CC3)C2)nn1 [Compound 1, 7-(3,3-Dimethylbutyl)-N-[6-(1,3-dimethylpyrazol-4-yl)pyridazin-3-yl]-7-azaspiro[3.5]nonan-2-amine]	3.48%	–
Cc1nn(C)cc1-c1ccc(NCC2CC3(CCN(CCC(C)(C)C)CC3)C2)nn1 [Compound 39, N-[[7-(3,3-Dimethylbutyl)-7-azaspiro[3.5]nonan-2-yl]methyl]-6-(1,3-dimethylpyrazol-4-yl)pyridazin-3-amine]	4.55%	0.22 µM
Cc1nn(C)cc1-c1ccc(NC2CC3(CCN(CC4CCOCC4)CC3)C2)nn1 [Compound 5, N-[6-(1,3-dimethylpyrazol-4-yl)pyridazin-3-yl]-7-(tetrahydropyran-4-ylmethyl)-7-azaspiro[3.5]nonan-2-amine]	15.9%	> 10 µM
CC(CN1CCC2(CC1)CC(Oc1ccc(-c3cc(F)ccc3Cl)nn1)C2)C(C)(C)C (stereo not shown) [Compound 17, 2-[6-(2-chloro-5-fluoro-phenyl)pyridazin-3-yl]oxy-7-(2,3,3-trimethylbutyl)-7-azaspiro[3.5]nonane]	2.73%	0.59 µM
Cc1cnn(C)c1-c1ccc(NC2CC3(CCN(CC(C)C(C)(C)C)CC3)C2)nn1 (stereo not shown) [Compound 9, N-[6-(2,4-dimethylpyrazol-3-yl)pyridazin-3-yl]-7-(2,3,3-trimethylbutyl)-7-azaspiro[3.5]nonan-2-amine]	3.11%	0.22 µM
Cc1nn(C)cc1-c1ccc(NC2CC3(CCN(CC4CC5C=CC4C5)CC3)C2)nn1 (stereo not shown) [Compound 3, 7-(5-bicyclo[2.2.1]hept-2-enylmethyl)-N-[6-(1,3-dimethylpyrazol-4-yl)pyridazin-3-yl]-7-azaspiro[3.5]nonan-2-amine]	3.12%	0.01 µM
Cc1cnn(C)c1-c1ccc(NC2CC3(CCN(CC4CC5C=CC4C5)CC3)C2)nn1 (stereo not shown) [Compound 8, 7-(5-bicyclo[2.2.1]hept-2-enylmethyl)-N-[6-(2,4-dimethylpyrazol-3-yl)pyridazin-3-yl]-7-azaspiro[3.5]nonan-2-amine]	2.86%	0.01 µM
Cc1nn(C)cc1-c1ccc(OC2CC3(CCN(Cc4ccccc4)CC3)C2)nn1 [Compound 30, 7-benzyl-2-[6-(1,3-dimethylpyrazol-4-yl)pyridazin-3-yl]oxy-7-azaspiro[3.5]nonane]	5.31%	1.63 µM
Cc1cnn(C)c1-c1ccc(OC2CC3(CCN(CC4CCSCC4)CC3)C2)nn1 [Compound 36, 2-[6-(2,4-dimethylpyrazol-3-yl)pyridazin-3-yl]oxy-7-(tetrahydrothiopyran-4-ylmethyl)-7-azaspiro[3.5]nonane]	4.76%	1.21 µM
Fc1ccc(Cl)c(-c2ccc(OC3CC4(CCN(CC5CCCOC5)CC4)C3)nn2)c1 (stereo not shown) [Compound 20, 2-[6-(2-chloro-5-fluoro-phenyl)pyridazin-3-yl]oxy-7-(tetrahydropyran-3-ylmethyl)-7-azaspiro[3.5]nonane]	5.55%	1.77 µM

Next, values leading:

remaining activity at 30 µM	IC50	Structure (SMILES)
30.8%	> 10 µM	Cc1nn(C)cc1-c1ccc(NCC2CC3(CCN(CC4CCOCC4)CC3)C2)nn1 [Compound 52, 6-(1,3-dimethylpyrazol-4-yl)-N-[[7-(tetrahydropyran-4-ylmethyl)-7-azaspiro[3.5]nonan-2-yl]methyl]pyridazin-3-amine]
4.6%	2.02 µM	Fc1ccc(Cl)c(-c2ccc(NCC3CC4(CCN(Cc5ccc6c(c5)OCO6)CC4)C3)nn2)c1 [Compound 49, N-[[7-(1,3-benzodioxol-5-ylmethyl)-7-azaspiro[3.5]nonan-2-yl]methyl]-6-(2-chloro-5-fluoro-phenyl)pyridazin-3-amine]
37.6%	> 10 µM	Cc1nn(C)cc1-c1ccc(NCC2CC3(CCN(CC4CCCOC4)CC3)C2)nn1 (stereo not shown) [Compound 51, 6-(1,3-dimethylpyrazol-4-yl)-N-[[7-(tetrahydropyran-3-ylmethyl)-7-azaspiro[3.5]nonan-2-yl]methyl]pyridazin-3-amine]
6.27%	1.12 µM	Cc1nn(C)cc1-c1ccc(NCC2CC3(CCN(Cc4ccccc4F)CC3)C2)nn1 [Compound 54, 6-(1,3-dimethylpyrazol-4-yl)-N-[[7-[(2-fluorophenyl)methyl]-7-azaspiro[3.5]nonan-2-yl]methyl]pyridazin-3-amine]
2.63%	0.24 µM	Fc1ccc(Cl)c(-c2ccc(NCC3CC4(CCN(CC5CC6C=CC5C6)CC4)C3)nn2)c1 (stereo not shown) [Compound 40, N-[[7-(5-bicyclo[2.2.1]hept-2-enylmethyl)-7-azaspiro[3.5]nonan-2-yl]methyl]-6-(2-chloro-5-fluoro-phenyl)pyridazin-3-amine]
19.4%	3.94 µM	Cc1cccnc1CN1CCC2(CC1)CC(CNc1ccc(-c3cn(C)nc3C)nn1)C2 [Compound 56, 6-(1,3-dimethylpyrazol-4-yl)-N-[[7-[(3-methyl-2-pyridyl)methyl]-7-azaspiro[3.5]nonan-2-yl]methyl]pyridazin-3-amine]
5.29%	2.28 µM	Fc1ccc(Cl)c(-c2ccc(NCC3CC4(CCN(CC5CCCOC5)CC4)C3)nn2)c1 (stereo not shown) [Compound 43, 6-(2-chloro-5-fluoro-phenyl)-N-[[7-(tetrahydropyran-3-ylmethyl)-7-azaspiro[3.5]nonan-2-yl]methyl]pyridazin-3-amine]
5.41%	0.18 µM	Cc1nn(C)cc1-c1ccc(NCC2CC3(CCN(CC4CC5C=CC4C5)CC3)C2)nn1 (stereo not shown) [Compound 59, N-[[7-(5-bicyclo[2.2.1]hept-2-enylmethyl)-7-azaspiro[3.5]nonan-2-yl]methyl]-6-(1,3-dimethylpyrazol-4-yl)pyridazin-3-amine]
34.3%	> 10 µM	Cc1nn(C)cc1-c1ccc(NCC2CC3(CCN(Cc4ccccn4)CC3)C2)nn1 [Compound 55, 6-(1,3-dimethylpyrazol-4-yl)-N-[[7-(2-pyridylmethyl)-7-azaspiro[3.5]nonan-2-yl]methyl]pyridazin-3-amine]
3.96%	0.25 µM	Fc1ccc(Cl)c(-c2ccc(OCC3CC4(CCN(CC5CC6C=CC5C6)CC4)C3)nn2)c1 (stereo not shown) [Compound 61, 7-(5-bicyclo[2.2.1]hept-2-enylmethyl)-2-[[6-(2-chloro-5-fluoro-phenyl)pyridazin-3-yl]oxymethyl]-7-azaspiro[3.5]nonane]

From US11149022B2, “Antagonists of the muscarinic acetylcholine receptor M4” (Vanderbilt University, priority 2017, dated 2021)
